From patent publication US20200345006A1, “METHODS OF REDUCING NEMATODE INFECTION IN PLANTS” (The University of North Carolina at Charlotte, priority 2019, published 2020)

How the values were obtained:
[1] = tested on: H. glycines second-stage nematodes (J2), races 2 (HG type 1.2.5.7) and 5 (HG type 2.5.7); experiment: whole plant or invertebrate; conditions: for nematocidal activity against races 2 and 5: 24 hours incubation, 0.5 and 1.0 mg/ml, overall statement; for mortality at 500 µg/mL / mortality at 1000 µg/mL: Heterodera glycines, 24 h, read-out: J2 mortality
Experimental: Determination of the nematocidal activity of phenolic compounds was conducted as previously described. Briefly, approximately 400 freshly hatched J2s in 900 μl of water were added to each well of a 24-well Microtest™ tissue culture plate, and 100 μl of the compound test solution was added at concentrations of 5 mg/ml and 10 mg/ml. Therefore, the final concentration of each compound in each suspension is 0.5 mg/ml and 1.0 mg/ml. Control samples received 100 μl of water. Three replicates per concentration were used. The plate was covered with the original solid lid and wrapped with Parafilm®, and samples were kept at 27° C. in an incubator. After 24 hours of incubation, dead and alive J2 nematodes were counted using a stereo microscope Leica M165 FC (×40) to evaluate mortality rates. J2 mortality can be estimated according to the mean percentage of dead J2 in the total number of J2 (alive and dead). Nematodes are considered dead when no movement was observed during 3 seconds of observation. The compounds 3,4-dihydroxybenzoic acid and 4-hydroxybenzaldehyde are commercially available at Sigma-Aldrich, USA.

[2] = tested on: root-knot nematode (Meloidogyne incognita); conditions: known from prior reports; cited from earlier work
nematode = conditions: general statement; cited from earlier work

Which “nematocidal activity against races 2 and 5” value [1] does the source give for `O=C(O)c1ccc(O)c(O)c1` [3,4-dihydroxybenzoic acid] here?
The value was “demonstrated nematocidal activity”.

What about the mortality at 500 µg/mL [1] of the same molecule?
The mortality at 500 µg/mL was 19%.

What about the mortality at 1000 µg/mL [1] of the same molecule?
Its mortality at 1000 µg/mL is 30%.

And the “nematocidal activity against root-knot nematode” value [2]?
The value was “showing nematocidal activity”.

Which “nematocidal activity against races 2 and 5” value [1] does the source give for `O=Cc1ccc(O)cc1` [4-hydroxybenzaldehyde] here?
The value was “demonstrated nematocidal activity”.

What about the mortality at 500 µg/mL [1] of the same molecule?
The mortality at 500 µg/mL was 68%.

And the mortality at 1000 µg/mL [1]?
The mortality at 1000 µg/mL was 96%.

For `O=C(O)c1ccccc1O` [SA, salicylic acid], which direct nematocidal activity (nematode) is on record?
The direct nematocidal activity was “no direct nematocidal activity”.
